# Read-outs that look alike come from different tables or passages of the source.
# Key:
# Assay in all cases: Test A pre/postemergence
# Assay type in all cases: in vivo
# [1] = test system: morningglory (Ipomoea spp.); conditions: for pest or weed control at 125 g/ha / pest or weed control at 500 g/ha: Ipomoea, 240 h, read-out: Plant response rating, Morningglory
# Procedure, shortened: (§1)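 Visual injury scored 0–100 (0 = no effect, 100 = complete control) against untreated controls after about ten days in the greenhouse. Compounds, formulated in non-phytotoxic solvent plus surfactant, were applied preemergence as a directed soil spray and postemergence at the 1- to 2-leaf stage (2–10 cm).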
# [2] = test system: velvetleaf (Abutilon theophrasti); conditions: for pest or weed control at 125 g/ha / pest or weed control at 500 g/ha: Abutilon theophrasti, 240 h, read-out: Plant response rating, Velvetleaf
# Procedure, shortened: as §1
# [3] = test system: barnyardgrass (Echinochloa crus-galli); conditions: for pest or weed control at 125 g/ha / pest or weed control at 500 g/ha: Echinochloa crus-galli, 240 h, read-out: Plant response rating, Barnyardgrass
# Procedure, shortened: as §1
# [4] = test system: giant foxtail (Setaria faberi); conditions: for pest or weed control at 125 g/ha / pest or weed control at 500 g/ha: Setaria faberi, 240 h, read-out: Plant response rating, Foxtail, Giant
# Procedure, shortened: as §1
# [5] = test system: redroot pigweed (Amaranthus retroflexus); conditions: for pest or weed control at 125 g/ha / pest or weed control at 500 g/ha: Amaranthus retroflexus, 240 h, read-out: Plant response rating, Pigweed
# Procedure, shortened: as §1
# [6] = test system: crabgrass (Digitaria sanguinalis); conditions: for pest or weed control at 125 g/ha / pest or weed control at 500 g/ha: Digitaria sanguinalis, 240 h, read-out: Plant response rating, Crabgrass
# Procedure, shortened: as §1
# [7] = Postemergence, 125 g ai/ha, 0 to 100 scale (0 no effect, 100 complete control)
# [8] = Postemergence, 500 g ai/ha, 0 to 100 scale (0 no effect, 100 complete control)
# [9] = Preemergence, 125 g ai/ha, 0 to 100 scale where 0 is no effect and 100 is complete control, approximately ten days
# [10] = Preemergence, 500 g ai/ha, 0 to 100 scale where 0 is no effect and 100 is complete control, approximately ten days
# [11] = post-emergence, Postemergence, 125 g ai/ha, 0 to 100 scale (0 no effect, 100 complete control)
# [12] = post-emergence, Postemergence, 500 g ai/ha, 0 to 100 scale (0 no effect, 100 complete control)
# [13] = pre-emergence, Preemergence, 125 g ai/ha, 0 to 100 scale where 0 is no effect and 100 is complete control, approximately ten days
# [14] = pre-emergence, Preemergence, 500 g ai/ha, 0 to 100 scale where 0 is no effect and 100 is complete control, approximately ten days
smiles,measurement,setting,value
CS(=O)(=O)NC(=O)c1nc(C2CC2)nc(N)c1Cl [Compound 132],"Plant response rating, Morningglory",[1]; [7],45
same,"Plant response rating, Morningglory",[1]; [8],50
same,"Plant response rating, Morningglory",[1]; [9],0
same,"Plant response rating, Morningglory",[1]; [10],0
same,"Plant response rating, Velvetleaf",[2]; [7],50
same,"Plant response rating, Velvetleaf",[2]; [8],60
same,"Plant response rating, Velvetleaf",[2]; [9],0
same,"Plant response rating, Velvetleaf",[2]; [10],5
same,"Plant response rating, Barnyardgrass",[3]; [7],0
same,"Plant response rating, Barnyardgrass",[3]; [8],10
same,"Plant response rating, Barnyardgrass",[3]; [9],0
same,"Plant response rating, Barnyardgrass",[3]; [10],0
same,"Plant response rating, Foxtail, Giant",[4]; [7],0
same,"Plant response rating, Foxtail, Giant",[4]; [8],5
same,"Plant response rating, Foxtail, Giant",[4]; [9],0
same,"Plant response rating, Foxtail, Giant",[4]; [10],0
same,"Plant response rating, Pigweed",[5]; [7],50
same,"Plant response rating, Pigweed",[5]; [8],65
same,"Plant response rating, Pigweed",[5]; [9],15
same,"Plant response rating, Pigweed",[5]; [10],65
same,"Plant response rating, Crabgrass",[6]; [7],5
same,"Plant response rating, Crabgrass",[6]; [8],10
same,"Plant response rating, Crabgrass",[6]; [9],0
same,"Plant response rating, Crabgrass",[6]; [10],0
CCOC(=O)c1nc(-c2ccc(Cl)cc2)nc(N)c1I [Compound 137],"Plant response rating, Morningglory",[1]; [7],5
same,"Plant response rating, Morningglory",[1]; [8],30
same,"Plant response rating, Morningglory",[1]; [9],0
same,"Plant response rating, Morningglory",[1]; [10],0
same,"Plant response rating, Velvetleaf",[2]; [7],45
same,"Plant response rating, Velvetleaf",[2]; [8],60
same,"Plant response rating, Velvetleaf",[2]; [9],0
same,"Plant response rating, Velvetleaf",[2]; [10],0
same,"Plant response rating, Barnyardgrass",[3]; [7],0
same,"Plant response rating, Barnyardgrass",[3]; [8],0
same,"Plant response rating, Barnyardgrass",[3]; [9],0
same,"Plant response rating, Barnyardgrass",[3]; [10],0
same,"Plant response rating, Foxtail, Giant",[4]; [7],0
same,"Plant response rating, Foxtail, Giant",[4]; [8],0
same,"Plant response rating, Foxtail, Giant",[4]; [9],0
same,"Plant response rating, Foxtail, Giant",[4]; [10],0
same,"Plant response rating, Pigweed",[5]; [7],25
same,"Plant response rating, Pigweed",[5]; [8],45
same,"Plant response rating, Pigweed",[5]; [9],0
same,"Plant response rating, Pigweed",[5]; [10],0
same,"Plant response rating, Crabgrass",[6]; [7],0
same,"Plant response rating, Crabgrass",[6]; [8],0
same,"Plant response rating, Crabgrass",[6]; [9],0
same,"Plant response rating, Crabgrass",[6]; [10],0
Nc1nc(-c2ccc(F)cc2)nc(C(=O)O)c1Br [Compound 93],"Plant response rating, Morningglory",[1]; [7],40
same,"Plant response rating, Morningglory",[1]; [8],55
same,"Plant response rating, Morningglory",[1]; [9],0
same,"Plant response rating, Morningglory",[1]; [10],5
same,"Plant response rating, Velvetleaf",[2]; [7],65
same,"Plant response rating, Velvetleaf",[2]; [8],80
same,"Plant response rating, Velvetleaf",[2]; [9],55
same,"Plant response rating, Velvetleaf",[2]; [10],85
same,"Plant response rating, Barnyardgrass",[3]; [7],0
same,"Plant response rating, Barnyardgrass",[3]; [8],0
same,"Plant response rating, Barnyardgrass",[3]; [9],5
same,"Plant response rating, Barnyardgrass",[3]; [10],30
same,"Plant response rating, Foxtail, Giant",[4]; [7],0
same,"Plant response rating, Foxtail, Giant",[4]; [8],0
same,"Plant response rating, Foxtail, Giant",[4]; [9],5
same,"Plant response rating, Foxtail, Giant",[4]; [10],35
same,"Plant response rating, Pigweed",[5]; [7],45
same,"Plant response rating, Pigweed",[5]; [8],70
same,"Plant response rating, Pigweed",[5]; [9],80
same,"Plant response rating, Pigweed",[5]; [10],90
same,"Plant response rating, Crabgrass",[6]; [7],0
same,"Plant response rating, Crabgrass",[6]; [8],0
same,"Plant response rating, Crabgrass",[6]; [9],25
same,"Plant response rating, Crabgrass",[6]; [10],45
NC(=O)c1nc(C2CC2)nc(N)c1Br [Compound 20],pest or weed control at 125 g/ha,[1]; [11],20%
same,pest or weed control at 500 g/ha,[1]; [12],40%
same,pest or weed control at 125 g/ha,[1]; [13],10%
same,pest or weed control at 500 g/ha,[1]; [14],60%
same,pest or weed control at 125 g/ha,[2]; [11],10%
same,pest or weed control at 500 g/ha,[2]; [12],55%
same,pest or weed control at 125 g/ha,[2]; [13],0%
same,pest or weed control at 500 g/ha,[2]; [14],70%
same,pest or weed control at 125 g/ha,[3]; [11],0%
same,pest or weed control at 500 g/ha,[3]; [12],0%
same,pest or weed control at 125 g/ha,[3]; [13],0%
same,pest or weed control at 500 g/ha,[3]; [14],0%
same,pest or weed control at 125 g/ha,[4]; [11],0%
same,pest or weed control at 500 g/ha,[4]; [12],0%
same,pest or weed control at 125 g/ha,[4]; [13],0%
same,pest or weed control at 500 g/ha,[4]; [14],0%
same,pest or weed control at 125 g/ha,[5]; [11],40%
same,pest or weed control at 500 g/ha,[5]; [12],60%
same,pest or weed control at 125 g/ha,[5]; [13],40%
same,pest or weed control at 500 g/ha,[5]; [14],70%
same,pest or weed control at 125 g/ha,[6]; [11],0%
same,pest or weed control at 500 g/ha,[6]; [12],0%
same,pest or weed control at 125 g/ha,[6]; [13],0%
same,pest or weed control at 500 g/ha,[6]; [14],0%
CCOC(=O)c1nc(-c2cccc(C(F)(F)F)c2)nc(N)c1Cl [Compound 107],"Plant response rating, Morningglory",[1]; [7],0
same,"Plant response rating, Morningglory",[1]; [8],0
same,"Plant response rating, Morningglory",[1]; [9],0
same,"Plant response rating, Morningglory",[1]; [10],0
same,"Plant response rating, Velvetleaf",[2]; [7],35
same,"Plant response rating, Velvetleaf",[2]; [8],65
same,"Plant response rating, Velvetleaf",[2]; [9],0
same,"Plant response rating, Velvetleaf",[2]; [10],10
same,"Plant response rating, Barnyardgrass",[3]; [7],0
same,"Plant response rating, Barnyardgrass",[3]; [8],0
same,"Plant response rating, Barnyardgrass",[3]; [9],0
same,"Plant response rating, Barnyardgrass",[3]; [10],0
same,"Plant response rating, Foxtail, Giant",[4]; [7],0
same,"Plant response rating, Foxtail, Giant",[4]; [8],35
same,"Plant response rating, Foxtail, Giant",[4]; [9],0
same,"Plant response rating, Foxtail, Giant",[4]; [10],0
same,"Plant response rating, Pigweed",[5]; [7],10
same,"Plant response rating, Pigweed",[5]; [8],10
same,"Plant response rating, Pigweed",[5]; [9],0
same,"Plant response rating, Pigweed",[5]; [10],0
same,"Plant response rating, Crabgrass",[6]; [7],0
same,"Plant response rating, Crabgrass",[6]; [8],5
same,"Plant response rating, Crabgrass",[6]; [9],0
same,"Plant response rating, Crabgrass",[6]; [10],5
